Data on six molecules can be found in US20150018409A1, “CHIMERIC POLYPEPTIDES AND THEIR USE” (ADRIACELL S.P.A., priority 2003, published 2015).

Structures are written as SMILES.

The test system of assay [1] is U2OS cells. Nature of the assay: Histone H2AX Ser139 phosphorylation, single cell fluorescence microscopy. The assay is classed as cell-based, human. The following applies: Wortmanin 50 μM with SCPVUTAT 100 nM, 60 minutes.
Procedure: U2OS cells were treated with [sequence] (100 nM, central column) for 60 minutes, in addition treatment was done with Wortmanin (50 μM, WM, right column), or with no agent as a control (left column). After treatment cells were stained with specific antibodies to H2AX-Ser-139 phosphorylated (red) or for Histone 2B (served as a control, green) and analysed on a single cell level by fluorescence microscopy.
As another example for a phosphorylation of a substrate of ATM in response to the object of the invention, histone H2AX Ser^139 phosphorylation was analysed. […] U2OS cells were treated for 60 minutes with [sequence], fixed and analysed for histone H2AX Ser^139 phosphorylation. Cells were analysed with a specific antiserum to phospho-Ser 139 on histone H2AX and analysed in the microscope on a single cell basis. As a control histone 2B was analysed.
The subject of assay [2] is MRC-5 cells (ATM positive). The conditions noted are these: SCPVUTAT 100 nM or HU 1 mM.
Procedure: [sequence] dependent Ser^15 phosphorylation of p53. The ATM positive cell-line MRC5 was treated with [sequence] (100 nM, SC) or with hydroxyurea (1 mM, HU) for the time periods as indicated; as a control non treated cells were used (O).
(§1) P53 phosphorylation on Ser15 in response to [sequence] treatment was assayed in ATM positive or negative cell lines (MRC-5 and AT-5 respectively). For comparison parallel experiments were done with hydroxyurea (HU). […] For this immunoblotting experiments were done with extracts after treatment, by using specific antibodies to a phosphorylated Ser15 in p53 for specific detection.
For assay [3], the system named is AT-5 cells (ATM negative). The conditions noted are these: SCPVUTAT 100 nM or HU 1 mM.
Procedure: AT-5 cells, negative for ATM were treated with [sequence]
as §1
The subject of another assay is HCT116 (p53(+/+)) cells. Nature of the assay: Cell cycle arrest point: nuclear morphology and immunofluorescence of cyclin B1 and Cdc25C. The assay is classed as cell-based, human. The conditions noted are these: 30 hours; SCPVUTAT 100 nM or Taxol 0.2 μg/ml. As to the method:
Microscopic analysis of the HCT116 (p53(+/+)) cells not treated, or treated with […] (100 nM) for 30 hours, or with taxol (0.2 μg/ml). Immunofluorescence analysis was done with primary antibodies specific for cyclin B1 or specific for Cdc25C and coloured with secondary conjugates of FITC (green, cyclinB1) or TRITC (red, Cdc25C).
Moreover, the initiation of mitosis, i.e. induced with the microtuble blocking agents Nocodazol or Taxol, can be detected by the nuclear activity of the Cdc2 kinase and also by nuclear localisation of Cdc25C. These assays allow to dissect the exact point of cell cycle arrest after […] treatment and this further allows to detect disturbations in this phase of the cell cycle relative to a positive control. Similar experiments are well known in the art also for other phases of the cell cycle. The assay shown in FIG. 7A and the immunofluorescence analysis shown in FIG. 14 show examples for these types of experiments.
HCT116 (p53(+/+)) not treated, or treated for 30 hours with […] (100 nM), or with Taxol (0.2 μg/ml) were fixated with 3% PFA and treated with specific antibodies to cyclin B1 or for Cdc25C. The immunofluorescence was analysed with the microscope (see FIG. 14) with specific primary antibodies to cyclin B1 conjugated to FITC labelled secondary antibodies (green) or with specific primary antibodies to Cdc25C conjugated to TRITC labelled secondary antibodies (red).

For assay [4], the system named is U2OS osteosarcoma cells and IMR90 primary fibroblasts. Nature of the assay: Protein transduction of the chimeric proteins (immunoblot and immunofluorescence with PvuII antibody). The assay is classed as cell-based, human. On the procedure: For a comparison aliquots of the supernatants of the cell culture taken before extract preparation were included in the analysis (upper panel, SUPERNATANT).
In addition DNA costaining was obtained with propidium J after RNAse A digest (red, upper panel).
The transduction capacity of the chimeric proteins was assayed in U2OS osteosarcoma cells and in the IMR90 primary fibroblasts cells. The cells were grown in DMEM containing 10% FCS and treated with the proteins of the invention in the same medium, in general in the presence of antibiotics. After 10 minutes of incubation of the cells with increasing quantities of the fusion protein […] (1, 10, 50, 100, 200 nM) and with the protein SCPVU (single chain PvuII without TAT) and SC34 as a control (prepared as described for […] except that the enzyme PvuII contains a mutant in position 34) cell extracts were prepared, separated on SDS-PAGE and assayed by immuno-blot analysis with a monospecific antibody to PvuII. Further, uptake was assayed after 30 min of incubation by immuno-fluorescence analysis using PvuII specific antibodies and nuclear costaining with propidium iodide.

Assay [5] deals with U2OS cells. In words: FACS analysis of DNA content / cell cycle distribution. The format is cell-based, human. The conditions noted are these: for interaction with SCPVUTAT on the cell cycle: simultaneous incubation with SCPVUTAT
On the procedure: The distribution of the various phases of the cell cycle of the protein transduced cells was analysed by FACS analysis. Distribution of the DNA content of the cell populations was detected. 2n represents a diploid DNA equivalent (non replicated; G1 phase), 4n represents the tetraploid DNA equivalent (replicated; G2/M phase). For the FACS analysis the cells were separated employing the DDM mode that allows to estimate DNA content of a single cell. U2OS cells were grown for 24 hours (upper row) or 48 hours (lower row) in the presence of increasing amounts of […] (10 nM, 50 nM, 100 nM) as indicated and with only one addition of proteins; non treated cells (control); cells treated with a nuclease impaired derivative of […] (SC34, 100 nM). All the histograms shown represent a measure of DNA content relative to the cell numbers as indicated only on the upper right panel.
U2OS cells were incubated with […] (10 nM, panel B), or with H2O2 (10 μM, panelC), or both ([…], 10 nM; H2O2, 10 μM; panel D), or with no agent as a control (panel A). Further treatment cells were analysed in FACS for DNA content; the percentage of the various cell cycle phases are indicated at the bottoms of the individual histograms.
Finally, to confirm that the DSB's that are produced in vivo also induce perturbations in the cell cycle, DNA content in the various phases of the cell cycle was analysed by Fluorescence Activated Cell Sorting (FACS) after transduction of the proteins of the invention. After the treatment with diverse proteins at various concentrations and during different timepoints, the cells were fixed in 70% ethanol, treated with RNAse A and stained with propidium […].
The FACS analysis was done using a FACSCalibur™ (Becton Dickinson) apparatus. The obtained data were evaluated with the CellQuest™ software program package. At least 3×10^4 single events for every sample were analysed in the DDM mode. The statistic analysis of the DNA content distribution during the cell cycle was done with the MODFIT LT™ software program package. A 2N diploid DNA content correspond to cells in the G1 phase of the cell cycle, 4N represents a relative tetraploid DNA content and corresponds to G2 and/or M phase of the cell cycle. An intermediate DNA content represents S phase corresponding to a population actively replicating DNA during the cell cycle and a content that is below diploid 2N represents cells in apoptosis.
U2OS cells were incubated with 10 nM […] and with 10 μM H2O2 alone or in combination ant the cell cycle profile was analysed by FACS.

The subject of another assay is ATM, ATR and TOR. The conditions noted are these: Sarkaria et al., 1999; target not stated with the value; cited from earlier work.

For `COC[C@H]1OC(=O)c2coc3c2[C@@]1(C)C1=C(C3=O)[C@@H]2CCC(=O)[C@@]2(C)C[C@H]1OC(C)=O` [Wortmanin, reference compound], the “effect on SCPVUTAT induced histone H2AX Ser139 phosphorylation” value in the assay with U2OS cells [1] is “antagonist for this reaction”. As for `NC(=O)NO` [HU, hydroxyurea, reference compound], the p53-Ser15 phosphorylation result in assay [2] and in assay [3] was “comparable however consistently higher” each time.

For the molecule `CC(=O)O[C@H]1C(=O)[C@@]2(C)[C@H]([C@H](OC(=O)c3ccccc3)[C@]3(O)C[C@H](OC(=O)[C@H](O)[C@@H](NC(=O)c4ccccc4)c4ccccc4)C(C)=C1C3(C)C)[C@]1(OC(C)=O)CO[C@@H]1C[C@@H]2O` [Taxol, reference compound], the “cell cycle stop from localisation of Cdc25C and cyclin B” value with HCT116 (p53(+/+)) cells is on record as “stop in M phase”.

In the case of `Cn1c(=O)c2c(ncn2C)n(C)c1=O` [caffeine], the “influence of caffeine on the transduction capacity of SCPVUTAT” value in assay [4] was “nor does it influence the transduction capacity”. Also, the “effect of caffeine on the SCPVUTAT cell cycle stop” value in the assay on U2OS cells [5] (100 nM SCPVUTAT in combination with 2 mM caffeine, 30 hours) is listed as “antagonist to the effect of SCPVUTAT in vivo”. For the same molecule, in the assay with U2OS cells [5] (2 mM caffeine), the “cell cycle effect of caffeine alone” value is on record as “moderate delay in the G1 phase”. Also, the IC50 with ATM, ATR and TOR is below 1000 µM. Take `C[C@@]1(CO)[C@H](O)CC[C@@]2(C)[C@H]1CC[C@H]1C[C@@H]3C[C@@]12CC[C@]3(O)CO` [aphidicolin]: the “interaction with SCPVUTAT on the cell cycle” value with U2OS cells [5] is “no synergistic effect was observed”. Consider `OO` [H2O2], for which, in the assay with U2OS cells [5] (10 μM H2O2 alone), the “change of G2 phase” value is given as “no increase in G2”. In the assay on U2OS cells [5], the “interaction with SCPVUTAT on the cell cycle” value was “synergistic effect”.
